From US6518243B1, “Desleucyl glycopeptide antibiotics and methods of making same” (Trustees of Princeton University, priority 1999, dated 2003)

Key:
Assay type in all cases: cell-based
[1] = tested on: S. epidermidis (ATCC 12228); assay: Zone of inhibition screen, 96 well agar array format; parameters: scale not given here
Outline: (§1)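 Read-out is antibacterial activity on agar laid out as a 96-well array; every compound went through all strains of the panel.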

S. aureus (ATCC 29213) = assay: as above; parameters: scale not given here
Outline: as §1

E. faecium ATCC 49624 = assay: MIC determination in BHI media, OD600; conditions: BHI + 0.1% casamino acids, 18 hours at 37° C., ≧90% OD600 inhibition
Method: (§2) Logarithmically growing cells were diluted to approximately 5×10^5 CFU/ml and subjected to test compounds solubilized and serially diluted in DMSO. […] After 18 hours at 37° C., the OD600 was determined by reading the ninety-six well microtiter plates on a microplate reader. For a given concentration, an MIC determination was made if: […]

S. Aureus ATCC 33591 = assay: MIC determination in BHI media, OD600; conditions: BHI + 0.1% casamino acids, 18 hours at 37° C., ≧90% OD600 inhibition
Method: as §2

S aureus ATCC 29213 = assay: MIC determination in BHI media, OD600; conditions: BHI + 0.1% casamino acids, 18 hours at 37° C., ≧90% OD600 inhibition
Method: as §2

E. faecalis (CL 4877) = assay: Zone of inhibition screen, 96 well agar array format; parameters: scale not given here; conditions: zone of inhibition relative to 1 mg/ml p-chlorobiphenylvancomycin
Outline: as §1

[2] = zone of inhibition relative to 1 mg/ml stock solution of p-chlorobiphenylvancomycin
[3] = zone of inhibition relative to 1 mg/ml p-chlorobiphenylvancomycin

| SMILES | zone score, S. epidermidis ATCC 12228 [1, 2] | zone score, S. aureus ATCC 29213 (S. aureus (ATCC 29213); [2]) | MIC E. faecium ATCC 49624 (E. faecium ATCC 49624) | MIC S. aureus ATCC 33591 (S. Aureus ATCC 33591) | MIC S. aureus ATCC 29213 (S aureus ATCC 29213) | zone score, S. epidermidis ATCC 12228 [1, 3] | zone score, E. faecalis CL 4877 (E. faecalis (CL 4877)) | zone score, S. aureus ATCC 29213 (S. aureus (ATCC 29213); [3]) |
| --- | --- | --- | --- | --- | --- | --- | --- | --- |
| C[C@H]1O[C@H](O[C@H]2[C@H](Oc3c4cc5cc3Oc3ccc(cc3Cl)[C@@H](O)[C@@H](NC(=O)[C@@H](N)Cc3c[nH]c6ccccc36)C(=O)N[C@@H](CC(N)=O)C(=O)N[C@H]5C(=O)N[C@H]3C(=O)N[C@H](C(=O)N[C@@H](C(=O)O)c5cc(O)cc(O)c5-c5cc3ccc5O)[C@H](O)c3ccc(c(Cl)c3)O4)O[C@H](CO)[C@@H](O)[C@@H]2O)C[C@@](C)(NCc2ccc(-c3ccc(Cl)cc3)cc2)[C@H]1O [Compound 12] | 2 | 2 | 0.39 µg/mL | 0.78 µg/mL | 0.78 µg/mL |  |  |  |
| COCCOCC(=O)NC1C(=O)NC(CC(N)=O)C(=O)NC2C(=O)NC3C(=O)NC(C(=O)NC(C(=O)O)c4cc(O)cc(O)c4-c4cc3ccc4O)C(O)c3ccc(c(Cl)c3)Oc3cc2cc(c3OC2OC(CO)C(O)C(O)C2OC2CC(C)(NCc3ccc(-c4ccc(Cl)cc4)cc3)C(O)C(C)O2)Oc2ccc(cc2Cl)C1O (stereo not drawn) [Compound 100] |  | 2 | 0.78 µg/mL | 0.78 µg/mL | 0.25 µg/mL |  |  |  |
| CC1OC(OC2C(Oc3c4cc5cc3Oc3ccc(cc3Cl)C(O)C3NC(=O)C(NC(=O)C5NC(=O)C(CC(N)=O)NC(=O)C(NC(=O)c5ccc(F)cc5)C(O)c5ccc(c(Cl)c5)O4)c4ccc(O)c(c4)-c4c(O)cc(O)cc4C(C(=O)O)NC3=O)OC(CO)C(O)C2O)CC(C)(NCc2ccc(-c3ccc(Cl)cc3)cc2)C1O (stereo not drawn) [Compound 270] |  |  |  |  |  | 2 | 2 | 2 |
| CC1OC(OC2C(Oc3c4cc5cc3Oc3ccc(cc3Cl)C(O)C3NC(=O)C(NC(=O)C5NC(=O)C(CC(N)=O)NC(=O)C(NC(=O)c5c[nH]cn5)C(O)c5ccc(c(Cl)c5)O4)c4ccc(O)c(c4)-c4c(O)cc(O)cc4C(C(=O)O)NC3=O)OC(CO)C(O)C2O)CC(C)(NCc2ccc(-c3ccc(Cl)cc3)cc2)C1O (stereo not drawn) [Compound 272] |  |  |  |  |  | 2 | 2 | 2 |
| CC1OC(OC2C(Oc3c4cc5cc3Oc3ccc(cc3Cl)C(O)C3NC(=O)C(NC(=O)C5NC(=O)C(CC(N)=O)NC(=O)C(NC(=O)c5ccc(N)cc5O)C(O)c5ccc(c(Cl)c5)O4)c4ccc(O)c(c4)-c4c(O)cc(O)cc4C(C(=O)O)NC3=O)OC(CO)C(O)C2O)CC(C)(NCc2ccc(-c3ccc(Cl)cc3)cc2)C1O (stereo not drawn) [Compound 274] |  |  |  |  |  | 2 | 2 | 2 |
| Cc1oncc1C(=O)NC1C(=O)NC(CC(N)=O)C(=O)NC2C(=O)NC3C(=O)NC(C(=O)NC(C(=O)O)c4cc(O)cc(O)c4-c4cc3ccc4O)C(O)c3ccc(c(Cl)c3)Oc3cc2cc(c3OC2OC(CO)C(O)C(O)C2OC2CC(C)(NCc3ccc(-c4ccc(Cl)cc4)cc3)C(O)C(C)O2)Oc2ccc(cc2Cl)C1O (stereo not drawn) [Compound 275] |  |  |  |  |  | 2 | 2 | 2 |
| CC1OC(OC2C(Oc3c4cc5cc3Oc3ccc(cc3Cl)C(O)C3NC(=O)C(NC(=O)C5NC(=O)C(CC(N)=O)NC(=O)C(NC(=O)c5ccc6[nH]nnc6c5)C(O)c5ccc(c(Cl)c5)O4)c4ccc(O)c(c4)-c4c(O)cc(O)cc4C(C(=O)O)NC3=O)OC(CO)C(O)C2O)CC(C)(NCc2ccc(-c3ccc(Cl)cc3)cc2)C1O (stereo not drawn) [Compound 281] |  |  |  |  |  | 2 | 2 | 2 |
| CC1OC(OC2C(Oc3c4cc5cc3Oc3ccc(cc3Cl)C(O)C3NC(=O)C(NC(=O)C5NC(=O)C(CC(N)=O)NC(=O)C(NC(=O)C(F)F)C(O)c5ccc(c(Cl)c5)O4)c4ccc(O)c(c4)-c4c(O)cc(O)cc4C(C(=O)O)NC3=O)OC(CO)C(O)C2O)CC(C)(NCc2ccc(-c3ccc(Cl)cc3)cc2)C1O (stereo not drawn) [Compound 285] |  |  |  |  |  | 2 | 2 | 2 |
| CC1OC(OC2C(Oc3c4cc5cc3Oc3ccc(cc3Cl)C(O)C(NC(=O)C(F)(F)C(F)(F)C(F)(F)F)C(=O)NC(CC(N)=O)C(=O)NC5C(=O)NC3C(=O)NC(C(=O)NC(C(=O)O)c5cc(O)cc(O)c5-c5cc3ccc5O)C(O)c3ccc(c(Cl)c3)O4)OC(CO)C(O)C2O)CC(C)(NCc2ccc(-c3ccc(Cl)cc3)cc2)C1O (stereo not drawn) [Compound 290] |  |  |  |  |  | 2 | 2 | 2 |
| CC1OC(OC2C(Oc3c4cc5cc3Oc3ccc(cc3Cl)C(O)C3NC(=O)C(NC(=O)C5NC(=O)C(CC(N)=O)NC(=O)C(NC(=O)c5cc6ccccc6[nH]5)C(O)c5ccc(c(Cl)c5)O4)c4ccc(O)c(c4)-c4c(O)cc(O)cc4C(C(=O)O)NC3=O)OC(CO)C(O)C2O)CC(C)(NCc2ccc(-c3ccc(Cl)cc3)cc2)C1O (stereo not drawn) [Compound 291] |  |  |  |  |  | 2 | 2 | 2 |
